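Exposure lasted 48 hours, with cells grown in 96-well plates and compounds tested at five concentrations. The concentration for 50% growth inhibition is given as GI50. The concentration for full growth arrest is given as TGI.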
Assays:
Test in all cases: growth of human tumour cells (NCI), 48 h
DU-145 prostate = system: DU-145 prostate
SNB-75 CNS = system: SNB-75 CNS
U251 CNS = system: U251 CNS
SR leukemia = system: SR leukemia
CCRF-CEM leukemia = system: CCRF-CEM leukemia
BT-549 breast = system: BT-549 breast

SMILES | GI50 (DU-145 prostate) [µM] | TGI (DU-145 prostate) [µM] | GI50 (SNB-75 CNS) [µM] | TGI (SNB-75 CNS) [µM] | GI50 (U251 CNS) [µM] | TGI (U251 CNS) [µM] | GI50 (SR leukemia) [µM] | TGI (SR leukemia) [µM] | GI50 (CCRF-CEM leukemia) [µM] | TGI (CCRF-CEM leukemia) [µM] | GI50 (BT-549 breast) [µM] | TGI (BT-549 breast) [µM]
N#Cc1c(N)nc(NCc2ccccc2)c(C#N)c1-c1ccc(Cl)cc1Cl | > 100 | > 100 | 22.9 | 99 | > 61.9 | > 100 | 2.07 | 21.8 | 10.2 | 28.6 |  | 
COc1ccc(N(/C=C/C(=O)C(F)(F)F)CC(=O)c2ccc(Cl)cc2)cc1 | 19.8 | 40.4 |  |  | 13.7 | 26.7 |  |  | 12.2 | 38.1 | 20.6 | 65.3
C#COc1cccc(Nc2ncnc3cc(NC(=O)[C@H](C)Cl)ccc23)c1 | 6.09 | > 62.5 | 2.6 | > 62.5 | 2.84 | > 62.5 | 2.87 | > 62.5 | 2.41 | > 62.5 | 3.22 | > 62.5
c1ccc([As]=[As]c2ccccc2)cc1 (centres undefined) | 1.66 | 3.32 | 0.698 | 2.65 | 0.752 | 2.05 | 0.302 | 1.95 | 0.234 | 1.62 | 1.23 | 2.87
CSCCCNC(=O)c1csc(-c2csc(CCNC(=O)CNC(=O)CNC(=O)OC(C)(C)C)n2)n1 |  | > 100 |  | > 100 |  | > 100 |  | > 100 |  | > 100 |  | > 100
COc1cccc(C2C3=C(COC3=O)N(CCO)c3cc4c(cc32)OCO4)c1 (centres undefined) | 0.388 |  | 0.151 | 1.07 | 0.269 | > 50 | 0.0795 | 0.227 | 0.274 | > 50 | 0.45 | > 45.1
Cc1c(C(N)=O)sc2c1c(=O)n(Cc1ccccc1)c1nnc(-c3ccc(Br)cc3)n21 | 2.32 | 14.9 | 4.44 | 20.9 | 1.56 | 13 |  |  | 0.805 | 22.8 | 3.85 | 18.9
N#CN1CC[C@H](C(=O)Nc2cc3cc(C(N)=O)ccc3cn2)C1 | 0.357 | > 65.4 | 0.0649 | 0.512 | 0.0815 | 38.4 | 0.0347 |  | 0.029 | > 100 | 0.0357 | 0.23
CCn1c2ccccc2c2ccc(C3C(C(=O)OC)=C(C)NC(C)=C3C(=O)OC)cc21 |  | > 100 |  | > 100 |  | > 100 |  | > 100 |  | > 100 |  | > 100
COc1ccc(/C=C\c2cc(OC)c(OC)c(OC)c2)cc1OCC(=O)Nc1ccc2nc(C)sc2c1 | 3.81 | 29.7 | 1.55 | 7.37 | 3.59 | > 100 | 2.93 | > 100 | 3.41 | > 100 | 3.05 | 8.53
CC1=C[C@H]2C[C@H](C)[C@H]3CC[C@H](C)[C@]4(C1)C(=O)C(O)=C(C)C(=O)[C@@]324 | 43.3 | > 100 | 46.7 | > 100 | 32.1 | > 100 | 27.4 | 82.6 | 11.7 | 31.5 | 46 | > 100
COc1cc(C2C3=C(COC3=O)N(CCO)c3cc4c(cc32)OCO4)cc(OC)c1O (centres undefined) | 1.58 | 7.22 | 1.12 | 3.51 | 2.19 | > 50 | 0.611 | > 11.9 | 1.51 | > 50 | 2.28 | > 34.3
COc1cccc(/C(C)=N/NC(=O)CSc2nc3ccccc3c(=O)n2CCc2ccc(S(N)(=O)=O)cc2)c1 | 3.35 | 10.6 | 5.86 | 26.9 | 1.98 | 3.67 | 0.481 | > 100 | 5.31 | > 100 | 2.27 | 40.9
CCS(=O)(=O)c1ccc(OC)c(Nc2ncc(-c3ccccc3Cl)o2)c1 | 10.1 | > 25 | 9.11 | 24.6 | 18.1 | > 25 | 15.5 | > 25 | 9.78 | > 25 | 11.8 | > 25
Cc1cc(O)c(/C=N/C(=S)Nc2ccccc2)c(=O)o1 |  | > 100 |  | > 100 |  | > 100 |  |  |  | > 100 |  | > 100
COc1ccc(C2C=C(c3ccc(Cl)cc3)N=C3SC=C(C)N32)c(Br)c1 (centres undefined) | 2.68 | 7.26 | 3.77 | 16.7 | 3.34 | 13.1 | 2.06 | 14.9 | 2.37 | 11.8 | 3.22 | 12.4
Cc1cccc(NC(=O)/C=C/c2ccc([N+](=O)[O-])cc2)c1 |  | > 55 |  | > 60.4 |  | > 52.9 |  | > 24.5 |  | > 100 |  | > 51.8
Cc1ccc(NC(=O)/C(=N/N(C)C)C(C2OC(=O)c3ccccc32)[N+](=O)[O-])cc1 (centres undefined) |  |  |  | > 100 |  | > 100 |  |  |  | > 100 |  | > 100
COc1ccc(C(CC(=O)c2ccccc2)C(C(=O)c2ccccc2)C(c2ccc(OC)cc2)C2C(=O)NC(=S)NC2=O)cc1 (centres undefined) | 10.5 | 32 | 31.2 | > 100 | 7.42 | 23.6 |  |  | 11.8 | > 100 | 12.8 | 49.8
NC(=S)N=Nc1c(O)c2ccccc2c2ccccc12 | 1.9 | 3.36 | 1.34 | 3.24 | 3.07 | 11.4 | 9.64 | 35.8 | 28.6 | > 71.6 | 1.97 | 4.95
COc1ccccc1NS(=O)(=O)c1ccc2oc(SC(C)C)nc2c1 | 31.8 | > 100 | 27.4 | 84.3 | 33.1 | > 100 | 3.62 | 24.4 | 11.9 | 56.1 |  | 
C=C(C)C(=O)O[C@@H]1C/C(C)=C\[C@H](OC(C)=O)C[C@](C)(O)/C=C2/OC(=O)C(COC(C)=O)=C21 |  | 7.13 |  | 16 |  |  |  |  |  |  |  | 3.91

SMILES | GI50 (DU-145 prostate) [µM] | TGI (DU-145 prostate) [µM] | GI50 (SNB-75 CNS) [µM] | TGI (SNB-75 CNS) [µM] | GI50 (U251 CNS) [µM] | TGI (U251 CNS) [µM] | GI50 (SR leukemia) [µM] | TGI (SR leukemia) [µM] | GI50 (CCRF-CEM leukemia) [µM] | TGI (CCRF-CEM leukemia) [µM] | GI50 (BT-549 breast) [µM] | TGI (BT-549 breast) [µM]
COc1ccc(Nc2nc3cc(N)cc(N)c3nc2-c2ccccc2)cc1OC | 45 | > 100 |  |  | 26 | > 100 | 2.67 | 21.8 |  |  | 25.9 | 81.6
Cc1ccc(-c2nc([P+](c3ccccc3)(c3ccccc3)c3ccccc3)c(Nc3ccccc3)o2)cc1 | 1.2 | 2.48 | 1.23 | 2.54 | 0.585 | 2.14 | 0.39 | 2.32 | 0.445 | 2.28 | 1.53 | 3.02
CC12CCC3c4cc(Br)c(O)c(Br)c4CCC3C1CCC2O (centres undefined) |  | > 100 |  | 37.5 |  | 29.6 |  |  |  | 75.8 |  | 30.2
CCOC(=O)c1ccc2c(c1)[n+](=O)c(C(C)=O)c(C(F)(F)F)n2[O-] | 1.57 | 2.96 | 1.55 | 3 | 1.48 | 3.02 | 0.197 | 0.625 | 1.68 | 4.59 | 1.54 | 3.21
O=C(CC(=O)c1cccc(Cl)c1)c1cccc(Cl)c1 | 2.77 | > 100 | 3.09 | > 100 | 1 | > 100 |  |  | 0.874 | > 100 |  | 
Nc1nc(N)c2cc(Sc3cccc(C(F)(F)F)c3)ccc2n1 |  | 14.4 |  | 15.9 |  | 4.78 |  | 4.71 |  | 15.3 |  | 20.5
COc1cc(NCCN=C(N)NC(N)=NC(C)C)c2ncccc2c1 | 38.3 | > 100 | 2.48 | 13.8 | 12.4 | > 100 | 15 | > 100 | 16.4 | > 100 | 9.66 | 29.4
CNS(=O)(=O)OCC1OC(n2cnc3c(N)ncnc32)C(O)C1O (centres undefined) | > 100 | > 100 | > 100 | > 100 | > 100 | > 100 |  |  | > 100 | > 100 | > 100 | > 100
Cc1cn(-c2ccc(S(C)(=O)=O)cc2)c(-c2ccc(Cl)cc2)n1 | > 100 | > 100 | > 100 | > 100 | > 100 | > 100 |  |  | > 100 | > 100 | > 100 | > 100
CC1=C(C)C2(O)C(=C(C)C1=O)/C(=C(/O)c1ccccc1)c1nc3ccccc3n12 (centres undefined) | 26.8 | 68.6 | 11.7 | 32.1 | 22.1 | 58.2 | 10.9 | 37.6 | 12.2 | 38.5 | 22.6 | 54.8
Nc1nc(=O)n([C@@H]2CS[C@H](CO)O2)cc1F | > 100 | > 100 |  |  | > 100 | > 100 | > 100 | > 100 | > 100 | > 100 | > 100 | > 100
CN(C)c1ccc(C(c2ccc(Cl)cc2)c2ccc(N(C)C)cc2)cc1 |  | > 100 |  | > 100 |  | > 100 |  | > 100 |  | > 100 |  | > 100
Cc1ccc(-c2nc(-c3cn(C)c4ncccc34)cs2)cc1 | 7.42 | 21.3 | 4.16 | 22.4 | 4.4 | 17 | 0.442 | 21.8 | 14.7 | > 80 | 8 | 32.4
Cc1cccc(C)c1Nc1nc(C)c(C(=O)CC(=O)C(=O)Nc2c(C(C)C)cccc2C(C)C)s1 |  | > 100 |  |  |  | > 100 |  | > 100 |  |  |  | > 100
CCOC(=O)c1cnn2c3ccccc3n(S(=O)(=O)c3ccc(OC)cc3)c12 | 0.395 | > 24.2 |  |  | 0.377 | > 100 | 0.238 | > 100 | 0.257 | > 100 | 0.34 | 13.1
CCN1C[C@]2(COC)[C@H](O)C[C@H](OC)[C@]34C1[C@H]([C@H](OC)[C@H]23)[C@]1(OC(C)=O)[C@H]2[C@@H](OC(=O)c3ccccc3)[C@](O)(C[C@H]24)[C@@H](OC)[C@@H]1O |  | > 100 |  | > 100 |  | > 100 |  | > 100 |  | > 100 |  | > 100
Cc1cc(Nc2cc(N3CCN(C)CC3)nc(Sc3ccc(NC(=O)C4CC4)cc3)n2)n[nH]1 | > 10 | > 10 | 2.71 | > 10 | 3.05 | > 10 | 0.0594 | > 10 | 0.00613 | > 10 | 5.89 | > 10
CCCCCCCC(=O)OCC(=O)[C@]1(O)Cc2c(O)c3c(c(O)c2[C@@H](OC2CC(N)C(O)C(C)O2)C1)C(=O)c1c(OC)cccc1C3=O (some centres undefined) | 0.0266 | 0.284 |  |  |  |  |  |  |  |  |  | 
O=C(c1ccccc1)n1c(-c2ccccc2)cs/c1=N\S(=O)(=O)c1ccc(N2N=C3c4ccccc4CC3C2c2cccs2)cc1 (centres undefined) | 47 | > 100 | > 100 | > 100 | 32 | > 100 |  |  | 41.3 | > 100 | 67.9 | > 100
COc1cc2c(=O)n(CCN(C)C)c3c4cc5c(cc4ccc3c2cc1OC)OCO5 | 0.199 | 6.27 | 0.23 | 5.05 | 0.153 | 1.92 | 0.0557 | 3.78 | 0.146 | > 10.9 | 0.413 | 5.27
CCOC(=O)/C=C/C(=O)[C@H](CC(C)C)NC(=O)[C@H](Cc1ccccc1)NC(=O)OCc1ccccc1 | 3.1 | 11.5 | 12.6 | 25.4 | 13.2 | 27.2 | 2.39 | 6.32 | 2.58 | 18.8 | 14.4 | 27.6

From PubChem BioAssay (NCI)
